Laboratory results published in US12569534B2, “Therapeutic nanoparticles by coacervate complexation and their use for treating bacteria” (priority 2018, dated 2026).

Assays:
[1] = tested on: E. coli; test: MIC/MBC broth microdilution, Example 2; type: cell-based; conditions: Example 2 CS NPs
Method: (§1) Reference bacterial stains were purchased from ATCC. Clinical isolates of carbapenem-resistant bacteria were obtained from National Health Research Institutes (NHRI) and Tri-Service General Hospital (TSGH). MIC is defined as the lowest concentration of antibiotics required to inhibit the growth of bacteria. MBC is defined as the lowest concentration of antibiotics required to eradicate microorganisms. The MICs of CS and the CS NPs were determined using a broth microdilution method. Bacterial suspensions were adjusted to a turbidity of McFarland 0.5±0.05 and cultured overnight with different concentrations of CS or CS NPs. A control group without antimicrobial treatment was prepared as a reference. Following overnight incubation, solution turbidity was determined by visual inspection. Culture wells with no observable turbidity were further sub-cultured for MBC evaluation. Solutions from the clear wells were deposited onto an agar plate and cultured overnight to determine the MBCs.
To evaluate the antibacterial efficacy of the CS NPs of this study, their MIC and MBC were assessed against 5 reference bacterial strains and 20 clinical isolates of carbapenem-resistant A. baumannii, E. coli, K. pneumoniae, and P. aeruginosa according to the procedures set forth in EXAMPLE 1. Reference bacterial stains were purchased from ATCC. Carbapenem-resistant clinical isolated were obtained from NHRI.

[2] = tested on: E. coli; test: MIC/MBC broth microdilution, Example 1; type: cell-based; conditions: Example 1 CS NPs
Method: (§2) To evaluate antibacterial efficacy of the CS NPs, their minimum inhibitory concentration (MIC) and minimum bactericidal concentration (MBC) were assessed against 5 reference bacterial strains and 39 clinical isolates of carbapenem-resistant A. baumannii, P. aeruginosa, E. coli, and K. pneumoniae.
as §1

[3] = Maximum tolerated dose, intravenous; conditions: BALB/c mice, tail vein, Example 1 study
Excerpt: See e,g., Li et al, International Journal of Pharmaceutics, 2016, 515, 20-29; and Barnett et al., British Journal of Pharmacology and Chemotherapy, 1964, 23, 552-574. The highest dosage at which all examined subjects remained alive was defined as the MTD.
For this study, mice (8 weeks, Balb/c mice) were obtained from Bio-LASCO Taiwan Co., Ltd (Taipei, Taiwan). […] The highest dosage at which all examined subjects remained alive was defined as the MTD.

[4] = tested on: K. pneumoniae NHRI 1 isolate; test: Mouse survival model of K. pneumoniae infection; type: in vivo; conditions: neutropenic Balb/c mice, lethal i.p. infection; 5 mg/kg CS or 20 mg/kg CS NPs (50% MTD) 5 hours post-infection
Method: 3 days and 1 day before infection, the mice were injected intraperitoneally with 150 and 100 mg/kg of cyclophosphamide, respectively, to induce neutropenia. K. pneumoniae NHRI 1 isolate was grown in 60 mL Mueller Hinton broth at 150 rpm (orbital shaker, Yihder TS-580) for 2.5 hours at 37° C. to reach the mid-logarithmic phase. The bacteria were then collected at 10,000×g for 10 minutes at 4° C. The bacterial pellet was resuspended in PBS. To induce K. pneumoniae intraperitoneal infection with a lethal bacterial dose, mice were infected with 1.5×10^8 CFU/mouse in […] via intraperitoneal injection. 5 hours post-infection, the infected mice were treated with 5 mg/kg CS (50% MTD), 20 mg/kg CS NPs (50% MTD), or PBS as a control.

[5] = mouse, in vivo, iv, 4 mg/kg
Method: A group of mice were injected intravenously with sterile PBS through the tail vein as negative control. 24 hours after the last treatment, 0.5 mL of blood was collected from the animals for comprehensive metabolic panel analysis. The data was analyzed by Student's t-test followed by Dunnett's multiple comparison tests using GraphPad Prism (GraphPad Software, San Diego, CA). p values smaller than 0.05 were considered significant.

[6] = tested on: K. pneumoniae; test: MIC/MBC broth microdilution, Example 1; type: cell-based, Klebsiella pneumoniae; conditions: Example 1 CS NPs
Method: as §2, §1

[7] = tested on: E. Coli ATCC 25922; test: MIC and MBC of different treatments, Example 3; type: cell-based
Method: as §1

[8] = clinical carbapenem-resistant isolate E. coli NHRI 1
[9] = clinical carbapenem-resistant isolate E. coli NHRI 2
[10] = clinical carbapenem-resistant isolate E. coli NHRI 3
[11] = clinical carbapenem-resistant isolate E. coli NHRI 4
[12] = clinical carbapenem-resistant isolate E. coli NHRI 5
[13] = clinical carbapenem-resistant E. coli NHRI 1
[14] = clinical carbapenem-resistant E. coli NHRI 2
[15] = clinical carbapenem-resistant E. coli NHRI 3
[16] = clinical carbapenem-resistant E. coli NHRI 4
[17] = clinical carbapenem-resistant E. coli NHRI 5
[18] = clinical carbapenem-resistant E. coli TSGH 2
[19] = clinical carbapenem-resistant E. coli TSGH 4
[20] = clinical carbapenem-resistant E. coli TSGH 6
[21] = clinical carbapenem-resistant E. coli TSGH 8
[22] = clinical carbapenem-resistant E. coli TSGH 10
[23] = clinical carbapenem-resistant E. coli TSGH 14
[24] = clinical carbapenem-resistant E. coli TSGH 20
[25] = clinical carbapenem-resistant E. coli TSGH 21
[26] = clinical carbapenem-resistant K. pneumoniae NHRI 1
[27] = clinical carbapenem-resistant K. pneumoniae NHRI 2
[28] = clinical carbapenem-resistant K. pneumoniae NHRI 4
[29] = clinical carbapenem-resistant K. pneumoniae NHRI 5
[30] = clinical carbapenem-resistant K. pneumoniae TSGH 1
[31] = clinical carbapenem-resistant K. pneumoniae TSGH 3
[32] = clinical carbapenem-resistant K. pneumoniae TSGH 5
[33] = clinical carbapenem-resistant K. pneumoniae TSGH 7
[34] = clinical carbapenem-resistant K. pneumoniae TSGH 9
[35] = clinical carbapenem-resistant K. pneumoniae TSGH 11
[36] = clinical carbapenem-resistant K. pneumoniae TSGH 13
[37] = clinical carbapenem-resistant K. pneumoniae TSGH 15
[38] = clinical carbapenem-resistant K. pneumoniae TSGH 16
[39] = clinical carbapenem-resistant K. pneumoniae TSGH 17
[40] = clinical carbapenem-resistant K. pneumoniae TSGH 18
[41] = clinical carbapenem-resistant K. pneumoniae TSGH 19

colistin [CS]
MBC [1, 8]: 2 µg/mL | MIC [1, 8]: 2 µg/mL | MBC [1, 9]: 2 µg/mL | MIC [1, 9]: 1 µg/mL | MBC [1, 10]: 2 µg/mL | MIC [1, 10]: 1 µg/mL | MBC [1, 11]: 1 µg/mL | MIC [1, 11]: 1 µg/mL | MBC [1, 12]: 0.5 µg/mL | MIC [1, 12]: 0.5 µg/mL | MBC ([1]; reference strain E. coli 25922): 2 µg/mL | MIC ([1]; reference strain E. coli 25922): 1 µg/mL | MBC [2, 13]: 1 µg/mL | MIC [2, 13]: 1 µg/mL | MBC [2, 14]: 1 µg/mL | MIC [2, 14]: 1 µg/mL | MBC [2, 15]: 1 µg/mL | MIC [2, 15]: 1 µg/mL | MBC [2, 16]: 2 µg/mL | MIC [2, 16]: 1 µg/mL | MBC [2, 17]: 2 µg/mL | MIC [2, 17]: 1 µg/mL | MBC [2, 18]: 1 µg/mL | MIC [2, 18]: 1 µg/mL | MBC [2, 19]: 1 µg/mL | MIC [2, 19]: 1 µg/mL | MBC [2, 20]: 2 µg/mL | MIC [2, 20]: 1 µg/mL | MBC [2, 21]: 2 µg/mL | MIC [2, 21]: 1 µg/mL | MBC [2, 22]: 1 µg/mL | MIC [2, 22]: 1 µg/mL | MBC [2, 23]: 1 µg/mL | MIC [2, 23]: 1 µg/mL | MBC [2, 24]: 1 µg/mL | MIC [2, 24]: 1 µg/mL | MBC [2, 25]: 1 µg/mL | MIC [2, 25]: 1 µg/mL | MBC ([2]; reference strain E. coli 25922): 2 µg/mL | MIC ([2]; reference strain E. coli 25922): 1 µg/mL | MTD [3]: 10 mg/kg | mice survival rate [4]: did not improve survival | other parameters in the comprehensive metabolic panel [5]: neither CS nor the CS NPs induced any notable changes | MBC [6, 26]: 4 µg/mL | MIC [6, 26]: 2 µg/mL | MBC [6, 27]: 2 µg/mL | MIC [6, 27]: 2 µg/mL | MBC [6, 28]: 2 µg/mL | MIC [6, 28]: 2 µg/mL | MBC [6, 29]: 2 µg/mL | MIC [6, 29]: 2 µg/mL | MBC [6, 30]: 2 µg/mL | MIC [6, 30]: 2 µg/mL | MBC [6, 31]: 1 µg/mL | MIC [6, 31]: 1 µg/mL | MBC [6, 32]: 1 µg/mL | MIC [6, 32]: 1 µg/mL | MBC [6, 33]: 1 µg/mL | MIC [6, 33]: 1 µg/mL | MBC [6, 34]: 2 µg/mL | MIC [6, 34]: 1 µg/mL | MBC [6, 35]: 4 µg/mL | MIC [6, 35]: 4 µg/mL | MBC [6, 36]: 2 µg/mL | MIC [6, 36]: 1 µg/mL | MBC [6, 37]: 1 µg/mL | MIC [6, 37]: 1 µg/mL | MBC [6, 38]: 2 µg/mL | MIC [6, 38]: 2 µg/mL | MBC [6, 39]: 1 µg/mL | MIC [6, 39]: 1 µg/mL | MBC [6, 40]: 1 µg/mL | MIC [6, 40]: 1 µg/mL | MBC [6, 41]: 4 µg/mL | MIC [6, 41]: 1 µg/mL | MBC [7]: 4 µg/mL | MIC [7]: 2 µg/mL
